The record followed here is patent US6767549B2, “Ionic polymers as anti-infective agents” (Genzyme Corporation, priority 1996, dated 2004).

The test system of this test is C. parvum. Put plainly: In vitro activity against C. parvum infectivity in MDBK cell monolayers (indirect immunofluorescence assay). The format is cell-based. Particulars: Cryptosporidium parvum, 2 mg/mL, positive control drug, 48 hours. The method, then: Confluent MDBK cell monolayers were grown on 16 well slides, and infected with 5×10^5 of C. parvum oocysts per well. Various dilutions of the test reagents in dimethylsulfoxide (DMSO) were added to the monolayers and cultures were incubated at 37° C.(8% CO2) for 48 hours. The level of C. parvum infections was determined and analysed by an indirect immunofluorescence (IF) assay at 48 hours. Anti-C. parvum sporozoite rabbit serum (1:1000) was used as the primary antibody, and fluorscein-conjugated anti rabbit goat serum (1:100) was used as the secondary antibody. Each dilution was tested in quadruple, and each assay was performed at least two times. The monolayers were methanol fixed and, after IF labelling, the number of parasites observed in 10 high power fields (HPF) per well in each of the four wells per dilution was counted, statistically analysed and compared with infected wells which contained DMSO only. Paromomycin was used as the positive control drug.

A word on the inhibition: it is the relative decrease from the control value, in per cent. Low values mean little suppression, high ones strong suppression. As for `NC[C@@H]1O[C@H](O[C@H]2[C@@H](O)[C@H](O[C@@H]3[C@@H](O)[C@H](N)C[C@H](N)[C@H]3O[C@H]3O[C@H](CO)[C@@H](O)[C@H](O)[C@H]3N)O[C@@H]2CO)[C@H](N)[C@@H](O)[C@@H]1O` [paromomycin], the inhibition at 2000 µg/mL was found to be 79.4%.
